Experimental data from patent US11597724B2, “Herbicidally active 3-phenylisoxazoline-5-carboxamides of tetrahydro and dihydrofuran carboxylic acids and esters” (Bayer Aktiengesellschaft, priority 2017, dated 2023).

Tests used:
Format in all cases: in vivo
Hordeum murinum = assay: Post-emergence herbicidal activity against HORMU; settings: dosage 320 g/ha; for pest or weed control at 320 g/ha: Hordeum murinum, 504 h
How it was run: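 Greenhouse pot plants sprayed post-emergence at one-leaf stage (2-3 weeks after sowing) with WP or EC formulations, 0.5% additive, 600 l/ha water. Visual rating about 3 weeks later versus untreated controls: 100% = plants dead, 0% = like control.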

Abutilon theophrasti = assay: Post-emergence herbicidal activity against ABUTH; settings: dosage 320 g/ha, rated about 3 weeks after treatment; for pest or weed control at 320 g/ha: Abutilon theophrasti, 504 h
How it was run: (§1)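 Greenhouse-grown plants treated at one-leaf stage, 2 to 3 weeks after sowing, with WP or EC formulations sprayed as aqueous suspension/emulsion plus 0.5% additive at 600 l/ha. Activity rated visually about 3 weeks later versus untreated controls (100% = plants dead, 0% = like control).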

[1] = Pre-emergence treatment, summary over harmful plants; settings: 504 h, application rate of 0.08 kg of active substance or less per hectare, read-out: herbicidal action, pre-emergence treatment (very good activity)
Source text: 1. Pre-Emergence Herbicidal Action and Crop Plant Compatibility
(§2) Seeds of monocotyledonous and dicotyledonous weed plants and crop plants are placed in plastic or wood fiber pots and covered with soil. The compounds of the invention, formulated in the form of wettable powders (WP) or as emulsion concentrates (EC), are then applied onto the surface of the covering soil as aqueous suspension or emulsion with addition of 0.5% additive at a water application rate of 600 l/ha (converted). After the treatment, the pots are placed in a greenhouse and kept under good growth conditions for the trial plants. After about 3 weeks, the effect of the preparations is scored visually in comparison with untreated controls as percentages. For example, 100% activity=the plants have died, 0% activity=like control plants.
As shown by the results, compounds according to the invention such as, for example, the compounds No. I-21 and other compounds from the tables (for example I-10, I-26, I-09, I-30, I-28, I-29, I-27, I-01, I-06, I-34, I-19, I-11, I-36, I-37, I-38, I-41, I-42, I-43, I-44, I-46, I-49) have, when used for pre-emergence treatment, very good activity (80% to 100% herbicidal action) against harmful plants such as Abutilon theophrasti, Alopecurus myosuroides, Amaranthus retroflexus, Avena fatua, Echinochloa crus-galli, Hordeum murinum, Lolium rigidum, Pharbitis purpurea, Polygonum convolvulus, Setaria viridis, Stellaria media, Veronica persica and Viola tricolor at an application rate of 0.08 kg of active substance or less per hectare.

Viola tricolor = assay: Pre-emergence herbicidal activity against VIOTR; settings: dosage 80 g/ha
Source text: as §2, with “1. Pre-Emergence Herbicidal Action and Crop Plant Compatibility Seeds of” for “Seeds of”, “control plants. VIOTR: Viola tricolor” for “control plants.”

Alopecurus myosuroides = assay: Post-emergence herbicidal activity against ALOMY; settings: dosage 320 g/ha, rated about 3 weeks after treatment; for pest or weed control at 320 g/ha: Alopecurus myosuroides, 504 h
How it was run: as §1

Veronica persica = assay: Pre-emergence herbicidal activity against VERPE; settings: dosage 80 g/ha; for pest or weed control at 80 g/ha: Veronica persica, 504 h
How it was run: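 Weed seeds sown in pots and covered with soil, then WP or EC formulations sprayed onto the soil surface as aqueous suspension/emulsion with 0.5% additive at 600 l/ha water. Kept in greenhouse; visual percent effect versus untreated controls scored after about 3 weeks (100% = plants dead).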

Setaria viridis = assay: Pre-emergence herbicidal activity against SETVI; settings: dosage 80 g/ha; for pest or weed control at 80 g/ha: Setaria viridis, 504 h
Source text: as §2, with “1. Pre-Emergence Herbicidal Action and Crop Plant Compatibility Seeds of” for “Seeds of”, “control plants. POLCO: Polygonum convolvulus SETVI: Setaria viridis” for “control plants.”

Lolium rigidum = assay: Pre-emergence herbicidal activity against LOLRI; settings: dosage 80 g/ha; for pest or weed control at 80 g/ha: Lolium rigidum, 504 h
Source text: as §2, with “1. Pre-Emergence Herbicidal Action and Crop Plant Compatibility Seeds of” for “Seeds of”, “control plants. LOLRI: Lolium rigidum PHBPU: Pharbitis purpurea” for “control plants.”

| SMILES | pest or weed control at 320 g/ha (Hordeum murinum) | pest or weed control at 320 g/ha (Abutilon theophrasti) | pest or weed control at 80 g/ha [1] | Pre-emergence herbicidal activity against VIOTR in % (Viola tricolor) | pest or weed control at 320 g/ha (Alopecurus myosuroides) | pest or weed control at 80 g/ha (Veronica persica) | pest or weed control at 80 g/ha (Setaria viridis) | pest or weed control at 80 g/ha (Lolium rigidum) | Post-emergence herbicidal activity against HORMU in % (Hordeum murinum) | Post-emergence herbicidal activity against ABUTH in % (Abutilon theophrasti) | Post-emergence herbicidal activity against ALOMY in % (Alopecurus myosuroides) | Pre-emergence herbicidal activity against VERPE in % (Veronica persica) | Pre-emergence herbicidal activity against SETVI in % (Setaria viridis) | Pre-emergence herbicidal activity against LOLRI in % (Lolium rigidum) |
| --- | --- | --- | --- | --- | --- | --- | --- | --- | --- | --- | --- | --- | --- | --- |
| C=C[C@]1(C(=O)N[C@H]2CO[C@@H](C(=O)OC)C2)CC(c2cc(F)cc(F)c2)=NO1 (mixture of isomers) [I-10, methyl cis-4-[[(5S)-3-(3,5-difluorophenyl)-5-vinyl-4H-isoxazole-5-carbonyl]amino]tetrahydrofuran-2-carboxylate] | 100% | 90% | 80 to 100% | 100% | 100% | 100% | 100% | 100% |  |  |  |  |  |  |
| C=C[C@]1(C(=O)N[C@H]2CO[C@@H](C(=O)OCC)C2)CC(c2cc(F)cc(F)c2)=NO1 (mixture of isomers) [I-35, ethyl cis-4-[[(5S)-3-(3,5-difluorophenyl)-5-vinyl-4H-isoxazole-5-carbonyl]amino]tetrahydrofuran-2-carboxylate] | 100% | 80% |  | 100% | 100% | 100% | 100% | 100% |  |  |  |  |  |  |
| C=C[C@]1(C(=O)N[C@H]2CO[C@@H](C(=O)OC(C)C)C2)CC(c2cc(F)cc(F)c2)=NO1 (mixture of isomers) [I-36, isopropyl cis-4-[[(5S)-3-(3,5-difluorophenyl)-5-vinyl-4H-isoxazole-5-carbonyl]amino]tetrahydrofuran-2-carboxylate] | 90% | 90% | 80 to 100% | 100% | 90% | 100% | 100% | 100% |  |  |  |  |  |  |
| C=C[C@]1(C(=O)N[C@H]2CO[C@@H](C(=O)OCc3ccccc3)C2)CC(c2cc(F)cc(F)c2)=NO1 (mixture of isomers) [I-37, benzyl cis-4-[[(5S)-3-(3,5-difluorophenyl)-5-vinyl-4H-isoxazole-5-carbonyl]amino]tetrahydrofuran-2-carboxylate] | 80% | 80% | 80 to 100% | 100% |  | 100% | 100% | 100% |  |  |  |  |  |  |
| C=C[C@]1(C(=O)N[C@H]2CO[C@@H](C(=O)OC(C)(C)C)C2)CC(c2cc(F)cc(F)c2)=NO1 (mixture of isomers) [I-38, tert-butyl cis-4-[[(5S)-3-(3,5-difluorophenyl)-5-vinyl-4H-isoxazole-5-carbonyl]amino]tetrahydrofuran-2-carboxylate] | 90% | 80% | 80 to 100% | 100% | 90% | 100% | 100% | 100% |  |  |  |  |  |  |
| CC(C)(C)OC(=O)C1CC(NC(=O)C2(C)CC(c3cc(F)cc(F)c3)=NO2)CO1 (mixture of isomers) [I-42] |  |  |  | 100% |  |  |  |  | 100% | 80% | 100% | 90% | 100% | 100% |
| CCOC(=O)C1CC(NC(=O)C2(C)CC(c3cc(F)cc(F)c3)=NO2)CO1 (mixture of isomers) [I-43] |  |  |  | 90% |  |  |  |  | 100% | 80% | 100% | 90% | 100% | 100% |
| CC1(C(=O)NC2COC(C(=O)OCc3ccccc3)C2)CC(c2cc(F)cc(F)c2)=NO1 (mixture of isomers) [I-45] |  |  |  | 100% |  |  |  |  | 100% | 80% | 100% | 80% | 100% | 100% |
| COC(=O)C1CC(NC(=O)C2(C)CC(c3cc(F)cc(F)c3)=NO2)CO1 (mixture of isomers) [I-48] |  |  |  | 100% |  |  |  |  | 90% | 80% | 90% | 100% | 100% | 100% |
| COC(=O)[C@H]1C[C@@H](NC(=O)C2(C(F)(F)F)CC(c3cc(F)cc(F)c3)=NO2)CO1 (relative stereo) [I-06, methyl cis-4-[[3-(3,5-difluorophenyl)-5-(trifluoromethyl)-4H-isoxazole-5-carbonyl]amino]tetrahydrofuran-2-carboxylate] |  |  | 80 to 100% | 80% | 90% |  |  |  |  |  |  |  |  |  |
| C=C[C@]1(C(=O)N[C@H]2CO[C@@H](C(=O)OC)C2)CC(c2cc(F)cc(F)c2)=NO1 (single isomer, unassigned) [I-12] |  |  |  | 100% |  | 100% | 100% | 100% | 90% | 90% | 90% |  |  |  |
| COC(=O)C1COCC1NC(=O)C1(OC)CC(c2cc(F)cc(F)c2)=NO1 (stereo not drawn) [I-27, methyl 4-[[3-(3,5-difluorophenyl)-5-methoxy-4H-isoxazole-5-carbonyl]amino]tetrahydrofuran-3-carboxylate] |  |  | 80 to 100% | 90% | 90% | 90% |  |  |  |  |  |  |  |  |
| CC(C)OC(=O)C1CC(NC(=O)C2(C)CC(c3cc(F)cc(F)c3)=NO2)CO1 (stereo not drawn) [I-44] |  |  |  | 80% |  |  |  |  | 100% | 80% | 100% | 80% | 100% | 100% |
